How the values were obtained:
[1] = Solution stability, Example A (pH 7.4 phosphate buffer/MeOH, LC/MS); assay type: physicochemical
Experimental: The following comparative procedures were used.
A 1.05 mg/mL stock solution (5 mL) of Ex. 45 in MeOH was prepared. From the stock solution was taken out 1.25 mL and diluted to 25 mL with the addition of 23.75 mL of 10 mM phosphate buffer (pH 7.4)/MeOH (70/30 v/v). This new solution was split into three. One solution was incubated at 4° C., another incubated at 25° C. and the third incubated at 40° C. Each solution was analyzed by LC/MS after day 1, day 2 and day 6 and compared to a standard calibration curve for Ex. 45.
In the following study, the solution stability of the compound of Example 45 was measured and compared to that of Compound Z. The compound of Example 45 is an iminothiadiazine dioxide compound of the invention. Compound Z is the corresponding iminopyrimidinone compound. The structures of the compound of Example 45 and of Compound Z are shown below. Studies were performed in aqueous pH 7.4 buffer containing methanol at 4° C., 25° C. and 40° C.

[2] = Solution stability, Example B (50 mM pH 7.4 phosphate buffer, 25° C., LC/MS); assay type: physicochemical
Experimental: Stock solutions of the tested compounds were prepared by dissolving about 3 mg of each compound in 3 mL of acetonitrile. Standards for test compounds were prepared by diluting 1 mL of the stock solution with an additional 4 mL of acetonitrile. These standards were stored at 4° C. Samples were prepared by diluting 1 mL of the stock solution with 4 mL of 50 mM pH 7.4 phosphate buffer. These samples were stored at 25° C. in the absence of light. Standards and samples were analyzed by LC/MS initially and at day 1, day 4, and day 6.
Mobile phase A: 10 mM pH 5 ammonium acetate buffer:methanol (90:10)
Mobile phase B: 10 mM pH 5 ammonium acetate buffer:methanol (10:90)
Column: Zorbax SB-Phenyl 4.6×50 mm, 1.8 μm
Column temperature: 40° C.
Detectors: UV at 220 nm and 236 nm
MS, ES ionization, positive mode, for identification only at final time point.
The terms reported in the tables below have the following meanings:
Area % is the integration of peak from HPLC as reported by Waters Empower II software.
RRT is the relative retention time of new product compared to the standard of the test compound.
ND stands for no peak detected by the UV detector.
* stands for no ion detected by the mass spectrometer.
In the following study, the solution stability of the compound of Example 47 was measured and compared to that of Compound Y. The compound of Example 47 is an iminothiadiazine dioxide compound of the invention. Compound Y is the corresponding iminopyrimidinone compound. The structures of the compound of Example 47 and of Compound Y are shown below. Studies were performed in pH 7.4 buffer at 25° C.

[3] = Standard (acetonitrile, stored at 4° C.)

Row | Assay (Area %), class symbol ([1]; pH 7.4, 40° C., time not given) | Area %, Day 1; compound peak (RRT 1.00) ([2]; Sample at pH 7.4, 25° C.) [Area %] | Area %, Day 4; compound peak (RRT 1.00) ([2]; Sample at pH 7.4, 25° C.) [Area %] | Area %, Day 6; compound peak (RRT 1.00) ([2]; Sample at pH 7.4, 25° C.) [Area %] | Area %, Initial; compound peak (RRT 1.00) ([2]; Sample at pH 7.4, 25° C.) [Area %] | Area %, Day 1; compound peak (RRT 1.00) [2, 3] [Area %] | Area %, Day 4; compound peak (RRT 1.00) [2, 3] [Area %] | Area %, Day 6; compound peak (RRT 1.00) [2, 3] [Area %] | Area %, Initial; compound peak (RRT 1.00) [2, 3] [Area %] | Assay (Area %), class symbol ([1]; pH 7.4, 4° C., 2 days) | Assay (Area %), class symbol ([1]; pH 7.4, 4° C., 6 days) | Assay (Area %), class symbol ([1]; pH 7.4, 4° C., time not given) | Assay (Area %), class symbol ([1]; pH 7.4, 25° C., 2 days) | Assay (Area %), class symbol ([1]; pH 7.4, 25° C., 6 days) | Assay (Area %), class symbol ([1]; pH 7.4, 25° C., time not given) | Assay (Area %), class symbol ([1]; pH 7.4, 40° C., 2 days) | Assay (Area %), class symbol ([1]; pH 7.4, 40° C., 6 days) | SMILES
1 | — ((—) stands for >20% degradation) | – | – | – | – | – | – | – | – | – | – | – | – | – | – | – | – | CN1C(=N)N[C@](C)(c2cc(-c3cccc(C#N)c3)cs2)CS1(=O)=O [Example 45]
2 | – | 98.56 | 98.53 | 98.53 | 98.55 | 98.55 | 98.52 | 98.52 | 98.53 | – | – | – | – | – | – | – | – | CC#Cc1cncc(-c2csc([C@]3(C)CS(=O)(=O)N(C)C(=N)N3)c2)c1 [Example 47]
3 | — ((—) stands for >20% degradation) | – | – | – | – | – | – | – | – | — ((—) stands for >20% degradation) | — ((—) stands for >20% degradation) | — ((—) stands for >20% degradation) | — ((—) stands for >20% degradation) | — ((—) stands for >20% degradation) | — ((—) stands for >20% degradation) | — ((—) stands for >20% degradation) | — ((—) stands for >20% degradation) | CN1C(=N)N[C@](C)(c2cc(-c3cccc(C#N)c3)cs2)CC1=O [Compound Z]

— patent US9687494B2, “Iminothiadiazine dioxide compounds as BACE inhibitors, compositions, and their use” (Merck Sharp & Dohme Corp., priority 2009, dated 2017)
